Data: ChEMBL document CHEMBL1142054, “QSAR-by-NMR: quantitative insights into structural determinants for binding affinity by analysis of 1H/15N chemical shift differences in MMP-3 ligands” (Bioorg Med Chem Lett, 2005)

Tests used:
[1] = target: T1, Stromelysin-1 (Homo sapiens, UniProt P08254); assay: (§1) Binding affinity for human Matrix metalloprotease-3
Target sequence in this assay (P08254 100-477 limits assumed): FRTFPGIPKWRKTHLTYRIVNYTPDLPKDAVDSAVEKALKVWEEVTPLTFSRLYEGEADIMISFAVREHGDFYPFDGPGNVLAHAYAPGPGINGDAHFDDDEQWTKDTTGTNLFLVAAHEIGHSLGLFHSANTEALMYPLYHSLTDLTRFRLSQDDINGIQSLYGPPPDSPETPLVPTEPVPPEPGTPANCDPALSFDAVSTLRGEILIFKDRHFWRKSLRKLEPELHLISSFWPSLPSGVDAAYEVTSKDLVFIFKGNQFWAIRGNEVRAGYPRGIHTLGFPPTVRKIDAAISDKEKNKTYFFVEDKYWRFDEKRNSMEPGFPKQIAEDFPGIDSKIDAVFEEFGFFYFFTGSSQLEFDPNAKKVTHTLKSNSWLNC

[2] = target: T1, Stromelysin-1; assay: as §1; remark: listed apart in the source
Target sequence in this assay (P08254 whole entry): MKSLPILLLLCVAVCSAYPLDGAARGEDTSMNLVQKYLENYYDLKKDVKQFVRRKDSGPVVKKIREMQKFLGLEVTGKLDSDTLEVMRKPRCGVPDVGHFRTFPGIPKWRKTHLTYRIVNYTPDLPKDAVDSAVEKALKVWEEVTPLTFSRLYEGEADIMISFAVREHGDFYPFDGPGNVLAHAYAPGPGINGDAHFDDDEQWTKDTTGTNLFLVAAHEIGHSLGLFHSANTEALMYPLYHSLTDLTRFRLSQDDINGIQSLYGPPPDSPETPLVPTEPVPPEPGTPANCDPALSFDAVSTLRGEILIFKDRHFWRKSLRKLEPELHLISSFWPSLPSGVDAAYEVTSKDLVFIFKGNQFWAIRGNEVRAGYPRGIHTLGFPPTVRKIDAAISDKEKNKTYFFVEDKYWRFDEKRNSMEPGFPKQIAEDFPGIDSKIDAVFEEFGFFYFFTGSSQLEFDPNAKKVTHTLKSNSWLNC

[3] = target: Neutrophil collagenase (Homo sapiens, UniProt P22894); assay: Binding affinity for human Matrix metalloprotease-8
Neutrophil collagenase, sequence (P22894 whole entry): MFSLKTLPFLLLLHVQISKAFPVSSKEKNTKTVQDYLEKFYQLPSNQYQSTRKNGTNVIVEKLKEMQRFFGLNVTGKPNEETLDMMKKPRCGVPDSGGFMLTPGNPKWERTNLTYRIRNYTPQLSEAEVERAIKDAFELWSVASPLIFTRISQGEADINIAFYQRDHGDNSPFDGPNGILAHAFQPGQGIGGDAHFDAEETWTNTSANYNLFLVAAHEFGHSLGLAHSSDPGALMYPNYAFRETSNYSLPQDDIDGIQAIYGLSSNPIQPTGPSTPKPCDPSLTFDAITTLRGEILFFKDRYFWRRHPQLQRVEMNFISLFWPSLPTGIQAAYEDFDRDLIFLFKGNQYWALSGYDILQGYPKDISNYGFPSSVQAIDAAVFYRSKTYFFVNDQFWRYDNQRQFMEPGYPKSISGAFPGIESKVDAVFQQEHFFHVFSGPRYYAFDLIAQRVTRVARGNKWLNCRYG

SMILES	Concentration [1]	IC50 [2]	IC50 [3]
O=C(O)[C@H]1Cc2ccccc2CC1S(=O)(=O)c1ccc(Cl)cc1 (some centres not stated)	100 nM	–	–
O=C(O)[C@H]1Cc2ccccc2CC1S(=O)(=O)c1ccc(F)cc1 (some centres not stated)	400 nM	–	–
O=C(O)[C@H]1Cc2ccccc2CC1S(=O)(=O)c1ccc(Oc2ccccc2)cc1 (some centres not stated)	200 nM	–	–
O=C(O)[C@H]1Cc2ccccc2CC1S(=O)(=O)c1ccc(CCc2ccccc2)cc1 (some centres not stated)	50 nM	–	–
N#Cc1ccc(-c2ccc(S(=O)(=O)C3Cc4ccccc4C[C@@H]3C(=O)O)cc2)cc1 (some centres not stated)	1000 nM	–	–
O=C(O)[C@H]1Cc2ccccc2CC1S(=O)(=O)c1ccc(-c2ccccc2)cc1 (some centres not stated)	–	0.5 µM	0.01 µM
